From paper PMC7932537, “Quantitative profiling of protease specificity” (PLoS Computational Biology, 2021) come the findings set out here.

One experiment has as its system MMP-2. The experiment can be described thus: Substrate phage display with NGS: relative probability (RP) of P3-P1' tetramer clusters. The format is biochemical, human. The following applies: MMP2 - no binning; average relative probability (RP) of the P3-P1' tetramer; redundant tetramers have been averaged out.
On to ALDM, for which the avg_RP is on record as 0.2655. On the same count and under the same terms, for ALNM the value was 13.7479; for PQHL, 31.2196; for GAKL, 0.1271. PLSI showed an avg_RP of 32.2576.

For VWRL, the avg_RP was 0.9525. VFRL gave an avg_RP of 1.3631. Still for that read-out and setting: for VLFL the value was 1.6486. Still for that read-out and setting: the result for PLRI reads 15.7039. WASM displayed an avg_RP of 16.5169. Substance YSHL yielded an avg_RP of 14.1084. AHPL yielded an avg_RP of 24.4555. ALGL yielded an avg_RP of 26.3282. VAWL displayed an avg_RP of 32.2185. Same read-out and setting: for PASM the value was 32.7286; for ALPM, 15.3537. Still for that read-out and setting: for MLGL the value was 16.6463; for VAFL, 20.6554. As to IRWL, the avg_RP is reported as 25.5858. Still for that read-out and setting: the result for VHML reads 3.9806; that for GWRL, 0.1031. Same read-out and setting: the result for IRHL reads 22.5548; that for VNFL, 7.2989. Still for that read-out and setting: for AKML the value was 2.8249; for PAYL, 33.0829; for MQNL, 23.8708. GDRL had an avg_RP of 0. Still for that read-out and setting: the result for VRFM reads 15.2846; that for AKPL, 20.8275. Substance SMYL showed an avg_RP of 1.2279. Consider AQMI, for which the avg_RP was determined as 2.3525.

AHAL had an avg_RP of 27.1646.

For the substance AGHL, the avg_RP was 15.0568. On the same count and under the same terms, for INFL the value was 7.787.

Still in this experiment, the particulars now being: MMP2 - no binning; average relative probability of the P3-P1' tetramer; redundant tetramers have been averaged out.
PGWL returned an avg_RP of 33.1284. The same measure, in the same setting: for ARML the value was 2.9901; for PFFL, 12.8224. With AQPL, the avg_RP was determined as 14.4283. Same read-out and setting: the result for PEML reads 16.0599; that for FLHM, 0.2069. The substance AQDL showed an avg_RP of 0.5121. In the case of AMRM, the avg_RP is 0.1716. Regarding VLNM, the avg_RP came to 19.025. For VNSL, the avg_RP was determined as 13.3292. Same read-out and setting: the result for FRML reads 0.2112; that for MLSM, 5.2342; that for MASL [P3-P1' tetramer cluster], 31.6834. The same measure, in the same setting: the result for FAAL reads 18.8584; that for ARSL, 17.186; that for YFPL, 0.1432. Turning to PWFL, the avg_RP was determined as 12.628. With MLSL, the avg_RP is on record as 2.2282. On the same count and under the same terms, for PAGL [P3-P1' tetramer cluster] the value was 36.0156. Consider WRHL, for which the avg_RP is reported as 0.4087.

WSNL returned an avg_RP of 17.9326.

In the case of ARQL, the avg_RP was found to be 3.2139.

SGSL yielded an avg_RP of 7.2251.

TQHL: the avg_RP came out at 2.9223. The same measure, in the same setting: the result for LWTL reads 0.0853; that for VYAW, 0.6193; that for IWKL, 0.0593. As to LGMM, the avg_RP is on record as 22.231. For RRNL, the avg_RP came to 6.1579. Same read-out and setting: for MRHL the value was 14.413; for ASNL, 28.7368; for PHWL, 28.844. AGAL displayed an avg_RP of 19.769.

The substance MMQL came in with an avg_RP of 0.816. Regarding WLNL, the avg_RP was determined as 0.1218. As for MLAL, the avg_RP is 5.6722.

Substance VEYL came in with an avg_RP of 5.3014. VWWQ yielded an avg_RP of 0.2844. With ARWL, the avg_RP came out at 19.0362.

Substance GAAL gave an avg_RP of 15.7207.

As to PHLL, the avg_RP is recorded as 16.4802.

In turn, SGML showed an avg_RP of 1.3118. The same measure, in the same setting: for HYSL the value was 0.1694; for FLHW, 0.0579; for LKHL, 11.1441. The same measure, in the same setting: the result for ISYM reads 22.3091; that for PSGM, 32.7604; that for GQHL, 1.1642. Still for that read-out and setting: for VMLM the value was 0.5571; for PWLQ, 0.2574; for GYSL, 0.0471.

In turn, PYML displayed an avg_RP of 24.9477. As to ASFL, the avg_RP is 10.8605.

For the substance VGML, the avg_RP amounted to 28.5913.

LNSL gave an avg_RP of 18.3633.

Consider YYGL, for which the avg_RP is on record as 0.142. The substance PTSL had an avg_RP of 28.926. Same read-out and setting: for PMLL the value was 14.7282. In turn, YLPM gave an avg_RP of 0.4306. The same measure, in the same setting: for GMRL the value was 0.

Turning to PFRL, the avg_RP came to 16.3818. On to YRSL, for which the avg_RP was 1.5061. Still for that read-out and setting: for SYWL the value was 0.9791; for IESM, 2.7483; for SFAL, 0.5631. Same read-out and setting: the result for VNLL reads 0.5682.

The same experiment, now with this note: MMP2 - no binning; average relative probability of the tetramer; redundant tetramers averaged out.
Substance PLKI came in with an avg_RP of 14.0985. Take ALNF: the avg_RP came to 9.2594. For the substance PRWL, the avg_RP was determined as 34.1809.

On to VYGL, for which the avg_RP worked out at 17.3788. As for PGRL, the avg_RP came out at 29.6024. Still for that read-out and setting: the result for VAYL reads 26.5348; that for PRSW, 32.796. On the same count and under the same terms, the result for WSSL reads 16.6561; that for VWAI, 3.2193. Still for that read-out and setting: for VAKM the value was 17.3627. Regarding ASHL, the avg_RP is recorded as 19.8208. The same measure, in the same setting: for PAQM the value was 28.6142; for AYHL, 15.3364.

For PMNV, the avg_RP turned out to be 12.9651.

PLGI: the avg_RP came to 33.936. Same read-out and setting: for QLSL the value was 0.4979; for VRAI, 26.2338; for PLGL, 35.3536. Substance GRHL returned an avg_RP of 3.5979. In turn, PVPM showed an avg_RP of 31.3308. Same read-out and setting: the result for VRSI reads 11.7832. On the same count and under the same terms, for PHGF the value was 21.975; for PRSY, 30.3745.

PVHL showed an avg_RP of 32.2352.

With TLAL, the avg_RP amounted to 1.9537. The same measure, in the same setting: for PSRM the value was 27.1397; for PIEL, 20.545. For the substance VQHL, the avg_RP was 22.9738. For VAAV, the avg_RP is on record as 19.031. On the same count and under the same terms, the result for VRHL reads 25.4239. Regarding QQGL, the avg_RP is on record as 6.4014. Still for that read-out and setting: for PRPV the value was 29.4989; for IEYL, 5.366. Substance ISWM returned an avg_RP of 28.3587. On the same count and under the same terms, for PFKY the value was 2.0624; for PLHM, 30.0095.

As for AIHL, the avg_RP is 13.4941. In the case of VWML, the avg_RP is recorded as 1.4023.

In turn, VLNL had an avg_RP of 18.9065. Still for that read-out and setting: the result for PQWM reads 29.0885; that for SGAL, 13.4712; that for PNYL, 17.2533. Still for that read-out and setting: for VYLL the value was 1.2276. In the case of HFHL, the avg_RP is listed as 0.0941. Still for that read-out and setting: the result for GAHL reads 8.4636.

As for VMNY, the avg_RP worked out at 12.7895.

Take YNHL: the avg_RP is recorded as 3.693.

Consider VEAL, for which the avg_RP was found to be 10.756. On the same count and under the same terms, for AVAI the value was 20.993; for ALPL, 22.1772; for WASI, 12.5247. On the same count and under the same terms, for WRAF the value was 9.8395; for TRWL, 15.1455; for GRNL, 8.8117. Regarding PEPL, the avg_RP worked out at 26.8179. In turn, VFWY registered an avg_RP of 6.3003. On the same count and under the same terms, for YGNL the value was 24.0019; for PLLL, 15.2696; for HLAL, 11.3603. On the same count and under the same terms, the result for PAPM reads 30.2085; that for LNST, 0.4784.

Substance PSGW had an avg_RP of 32.6048.

Take PYPL: the avg_RP is on record as 30.8058. WMNL showed an avg_RP of 0. Still for that read-out and setting: the result for VRQL reads 16.7722. The same measure, in the same setting: the result for PYHI reads 15.3574. The same measure, in the same setting: for LMGL the value was 28.5499; for PIGI, 31.281.

For PHYL, the avg_RP was 24.5149.

Substance PLAF had an avg_RP of 31.4142. As to LAAI, the avg_RP was found to be 28.8382. PSGF returned an avg_RP of 31.2448. Same read-out and setting: the result for ATAL reads 22.9481; that for PRLY, 15.7594; that for PYKY, 4.8733. The substance IAAM yielded an avg_RP of 28.6184.

Substance PRQV showed an avg_RP of 4.0665.

The substance PVHY had an avg_RP of 23.3589. As for VRWY, the avg_RP amounted to 17.3102. On the same count and under the same terms, for WYGI the value was 0.0533; for PMWS, 5.1021; for ISNW, 26.0602. For VWNY, the avg_RP is 4.6964.

Still in this experiment, the particulars now being: tetramer annotation of MMP-2 cleavage sites in all substrates from MEROPS.
In the case of AAEL, the “relative probability (RP)” value is recorded as 15.51.

The same experiment, now with this note: tetramer annotation of MMP-2 cleavage sites in physiologic substrates from MEROPS.
With RIIG, the “relative probability (RP)” value is listed as 0.08.

Staying with this experiment, now noted: tetramer clusters unique to the MMP-2 selectome, MMP-2 RP.
The substance YAAL [P3-P1' tetramer cluster] yielded a relative_probability of 30.40. Regarding MASL [P3-P1' tetramer cluster], the relative_probability was 31.68. The substance MSWM [P3-P1' tetramer cluster] registered a relative_probability of 29.68. On to VANW [P3-P1' tetramer cluster], for which the relative_probability stood at 29.92.

The substance LGAM [P3-P1' tetramer cluster] displayed a relative_probability of 29.74.

The substance MSNL [P3-P1' tetramer cluster] registered a relative_probability of 30.28.

Staying with this experiment, now noted: tetramer probability in MMP2 set / naive library; 200 nM protease, 2 h, 37°C.
PAGL [P3-P1' tetramer cluster]: the “relative probability (RP)” value stood at 36.0156.
